Patent publication US20240165123A1, “USE OF A COMPOUND CONTAINING A TRICYCLIC HETEROARYL GROUP” (CSPC Zhongqi Pharmaceutical Technology (Shijiazhuang) Co., …, priority 2021, published 2024)

Tested on: OXA-induced Balb/c mouse atopic dermatitis model
Assay: Pharmacodynamic test in the OXA-induced mouse atopic dermatitis model
Type: in vivo, female Balb/c mice
From the text: The purpose of this test was to evaluate the pharmacodynamics of Compound (I) in the OXA-induced Balb/c mouse atopic dermatitis model. Repeated OXA stimulation of the dorsal skin of mice could produce a long-term inflammatory reaction. This model was closer to the clinical skin inflammation and was a common model for screening and evaluating compounds with anti-inflammatory activity.
Female Balb/c mice aged 8-9 weeks, number: 70
According to the body weight of animals in each group before administration, they were randomly divided into 7 groups with 10 animals in each group.
OXA induction was performed on the 7th day. The induction mode was to apply 5% OXA (dissolved in the acetone/olive oil (4/1) solvent) to the back of mice near the neck in an amount of 10 μL (1.5 cm×1.5 cm). Mice in the normal control group were applied with 10 μL of the acetone/olive oil (4/1) solvent in the same way. From the 1st da to 22nd day, the immunostimulation was performed, and 100 μL of 0.1% OXA (dissolved in the acetone/olive oil (4/1) solvent) was evenly applied on the back of mice near the neck. The application was performed every two days. Mice in the normal control group were applied with 100 μL of the acetone/olive oil (4/1) solvent in the same way. On the day of the immunostimulation, measuring the skin thickness, clinically scoring and photographing were required, and the OXA application was carried out after the above work was completed.
Compound (I) was administered by gavage twice a day (PO, bid) from the 1st to 22nd day. The administration was performed in the morning and completed before measuring the skin thickness, clinically scoring, photographing, and the OXA immunostimulation. The interval between two administrations was 8 hours.
Body weight data were recorded twice a week.
Skin thickness (1.5 cm×1.5 cm, the modeling area) was measured with a Mitutoyo digital indicator (Mitutoyo digimatic indicator, Type ID-C, USA) from the 1st to 22nd day. The measurement was performed every two days. If the skin thickness measurement and the OXA immunostimulation were performed on the same day, the skin thickness measurement would be preferred.
The skin in the modeling area was clinically scored according to the skin scoring criteria in Table 12 from the 1st to 22nd day and evaluated every two days. If the skin clinical scoring and the OXA immunostimulation were performed on the same day, the skin clinical scoring would be preferred.
At the end of the study, the tissue in the modeling area was stained with hematoxylin eosin for the skin pathological scoring and the epidermal thickness measurement.
After the mice were sacrificed, the dorsal skin was removed and fixed in 10% neutral formalin for 24 hours. It was dehydrated, then embedded in paraffin and made into 4-micron sections. The skin sections were stained with hematoxylin eosin, and the inflammatory cell infiltration and tissue changes in the stratum corneum, the epidermis layer and the dermis layer were observed under the microscope, and the pathological scores were made. The scoring criteria were: inflammatory cell aggregation and edema, which were divided into slight 1 point, moderate 2 points, and severe 3 points; telangiectasia, which was divided into slight 1 point, moderate 2 points, and severe 3 points.
The specific scoring criteria of inflammatory cell aggregation were as follows: (1) slight-1 point: inflammatory cells occupied a small amount of <10% of the dermal area of the skin; (2) moderate-2 points: inflammatory cells occupied 10%-50% of the dermal area of the skin; (3) severe-3 points: the inflammatory cells occupied greater than 50% of the dermal area of the skin. […]

[1] = 3 mpk PO bid, after 22 days of treatment

With `NC(=O)c1cnc(Nc2ccc3c(c2)OC[C@H]2CN(S(=O)(=O)C4CC4)CCN32)nc1NC1CC1` [Compound (I), (R)-4-(cyclopropylamino)-2-((3-(cyclopropylsulfonyl)-1,2,3,4,4a,5-hexahydrobenzo[b]pyrazolo[1,2-d][1,4]oxazin-8-yl)amino)pyrimidine-5-arboxamide] the “Influence on the body weight of mice” value (3, 10, 30 and 60 mpk PO bid, end of the study) was “no significant influence on the body weight of mice”, the Body weight (3 mpk PO bid, 1st Day) was 18.11 ± 0.13 g and the Skin clinical score (3 mpk PO bid, 1st Day) was 0.4 ± 0.16. The “Skin thickness (modeling area)” value (3 mpk PO bid, 1st day) was 0.511 ± 0.016 mm, the Body weight (3 mpk PO bid, 7th Day) was 18.83 ± 0.20 g and the “Skin thickness (modeling area)” value (3 mpk PO bid, 7th day) was 0.944 ± 0.026 mm. For the same compound, the Skin clinical score (3 mpk PO bid, 9th day) was 3.1 ± 0.10, the “Skin thickness (modeling area)” value (3 mpk PO bid, 17th day) was 1.361 ± 0.043 mm and the Skin clinical score (3 mpk PO bid, 19th day) was 2.9 ± 0.10. For the same compound, the Skin clinical score (3 mpk PO bid, 22nd day) was 3.0 ± 0.00, the “Skin thickness (modeling area)” value (3 mpk PO bid, 22nd day) was 1.368 ± 0.028 mm and the Epidermal thickness [1] was 75.79 ± 3.36 μm. For the same compound, the Pathological score [1] was 6.4 ± 0.34, the Body weight (3 mpk PO bid, −7th Day) was 18.11 ± 0.13 g and the Body weight (10 mpk PO bid, 1st Day) was 18.11 ± 0.13 g. The Skin clinical score (10 mpk PO bid, 1st Day) was 0.4 ± 0.16, the “Skin thickness (modeling area)” value (10 mpk PO bid, 1st day) was 0.535 ± 0.027 mm and the Body weight (10 mpk PO bid, 7th Day) was 18.80 ± 0.22 g. For the same compound, the “Skin thickness (modeling area)” value (10 mpk PO bid, 7th day) was 0.958 ± 0.026 mm, the Skin clinical score (10 mpk PO bid, 9th day) was 3.0 ± 0.00 and the “Skin thickness (modeling area)” value (10 mpk PO bid, 17th day) was 1.257 ± 0.020 mm. For the same compound, the Skin clinical score (10 mpk PO bid, 19th day) was 2.7 ± 0.15, the Skin clinical score (10 mpk PO bid, 22nd day) was 2.7 ± 0.15 and the “Skin thickness (modeling area)” value (10 mpk PO bid, 22nd day) was 1.338 ± 0.021 mm. It also gave a Body weight (10 mpk PO bid, −7th Day) of 18.11 ± 0.13 g, a Body weight (30 mpk PO bid, 1st Day) of 18.10 ± 0.12 g and a Skin clinical score (30 mpk PO bid, 1st Day) of 0.5 ± 0.17. The “Skin thickness (modeling area)” value (30 mpk PO bid, 1st day) was 0.534 ± 0.029 mm, the Body weight (30 mpk PO bid, 7th Day) was 18.79 ± 0.11 g and the “Skin thickness (modeling area)” value (30 mpk PO bid, 7th day) was 0.976 ± 0.021 mm. It also gave a Skin clinical score (30 mpk PO bid, 9th day) of 3.0 ± 0.00, a Body weight (30 mpk PO bid, −7th Day) of 18.10 ± 0.12 g and a Body weight (60 mpk PO bid, 1st Day) of 18.10 ± 0.12 g. For the same compound, the Skin clinical score (60 mpk PO bid, 1st Day) was 0.6 ± 0.16, the “Skin thickness (modeling area)” value (60 mpk PO bid, 1st day) was 0.556 ± 0.035 mm and the Body weight (60 mpk PO bid, 7th Day) was 18.92 ± 0.13 g. The “Skin thickness (modeling area)” value (60 mpk PO bid, 7th day) was 0.993 ± 0.033 mm, the Skin clinical score (60 mpk PO bid, 9th day) was 3.0 ± 0.00 and the Body weight (60 mpk PO bid, −7th Day) was 18.10 ± 0.12 g.
